Assay type in all cases: cell-based
The target of experiment [1] is T1, Neuropeptide Y receptor type 1 (Homo sapiens, UniProt P25929).
T1 sequence (P25929 whole entry): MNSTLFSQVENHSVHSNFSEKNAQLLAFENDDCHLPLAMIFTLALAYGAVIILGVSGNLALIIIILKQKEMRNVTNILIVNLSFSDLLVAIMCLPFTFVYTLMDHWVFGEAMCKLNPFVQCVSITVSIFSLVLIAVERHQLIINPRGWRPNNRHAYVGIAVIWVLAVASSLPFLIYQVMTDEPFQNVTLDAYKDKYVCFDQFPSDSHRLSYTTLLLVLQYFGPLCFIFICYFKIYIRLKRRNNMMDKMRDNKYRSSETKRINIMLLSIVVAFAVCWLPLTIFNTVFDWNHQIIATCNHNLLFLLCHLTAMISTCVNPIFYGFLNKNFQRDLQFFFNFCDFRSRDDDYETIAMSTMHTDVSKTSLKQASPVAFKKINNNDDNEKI
The experiment in a line: Displacement of [125I]-NPY from Y1 receptor in human MCF7 cells in presence of 1 uM BBN. On the technique in general: Displacement assays read how much labelled ligand stays bound in the presence of the test substance.

In experiment [2] the target is T1, Neuropeptide Y receptor type 1. Briefly: Binding affinity to Y1 receptor in human SK-N-MC cells.
Experiment [3] deals with Gastrin-releasing peptide receptor (Homo sapiens, UniProt P30550). The experiment in a line: Displacement of [125I]-Tyr4-BBN from human GRPR overexpressed in human T47D cells.
Chain of Gastrin-releasing peptide receptor (P30550 whole entry): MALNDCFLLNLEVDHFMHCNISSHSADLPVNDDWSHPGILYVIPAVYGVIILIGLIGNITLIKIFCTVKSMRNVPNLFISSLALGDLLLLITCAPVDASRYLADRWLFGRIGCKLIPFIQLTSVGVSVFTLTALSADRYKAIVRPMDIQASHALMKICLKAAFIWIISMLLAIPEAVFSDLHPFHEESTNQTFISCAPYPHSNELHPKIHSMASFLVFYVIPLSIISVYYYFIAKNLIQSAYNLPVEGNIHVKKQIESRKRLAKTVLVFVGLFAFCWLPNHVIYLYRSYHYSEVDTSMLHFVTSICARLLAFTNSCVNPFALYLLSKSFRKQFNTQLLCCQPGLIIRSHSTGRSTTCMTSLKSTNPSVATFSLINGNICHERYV

For one molecule, IC50 results are on record in ChEMBL document CHEMBL2311470, “Heterobivalent dual-target probe for targeting GRP and Y1 receptors on tumor cells” (Bioorg Med Chem Lett, 2013).

Structures are written as SMILES. pIC50: −log10 of the molar value.

The term pIC50 denotes −log10 of the IC50, conventionally taken in molar units. Turning to `CC[C@H](C)[C@H](N)C(=O)N[C@@H](CC(N)=O)C(=O)N1CCC[C@H]1C(=O)N[C@@H](CCCCNC(=O)COCCOCCNC(=O)[C@H](CCCCNC(=O)COCC(=O)NCCOCCOCC(=O)NCC(=O)Nc1ccc(C(=O)N[C@@H](CCC(N)=O)C(=O)N[C@@H](Cc2c[nH]c3ccccc23)C(=O)N[C@@H](C)C(=O)N[C@H](C(=O)NCC(=O)N[C@@H](Cc2cnc[nH]2)C(=O)N[C@@H](CC(C)C)C(=O)N[C@@H](CCSC)C(N)=O)C(C)C)cc1)NC(=O)CN1CCN(CC(=O)O)CCN(CC(=O)O)CCN(CC(=O)O)CC1)C(=O)N[C@@H](Cc1ccc(O)cc1)C(=O)N[C@@H](CCCN=C(N)N)C(=O)N[C@@H](CC(C)C)C(=O)N[C@@H](CCCN=C(N)N)C(=O)N[C@@H](Cc1ccc(O)cc1)C(N)=O`, the negative-log IC50 (pIC50) in experiment [1] was 7.10; in experiment [2] it was 7.13; in experiment [3], 7.74.
